Broadly, the EC50 is the concentration needed to bring the measured effect to its halfway point.

The assay has as its target T1, STAT6 (Homo sapiens, UniProt P42226).
T1 construct: stably transfected HaCaT keratinocyte cell line, which expresses NanoLuc luciferase reporter gene under the transcriptional control of the STAT6 responsive promoter; endogenous in cells; host or cells: HaCaT keratinocyte reporter cell line (stably transfected with a NanoLuc reporter)
T1 sequence (P42226 1-847): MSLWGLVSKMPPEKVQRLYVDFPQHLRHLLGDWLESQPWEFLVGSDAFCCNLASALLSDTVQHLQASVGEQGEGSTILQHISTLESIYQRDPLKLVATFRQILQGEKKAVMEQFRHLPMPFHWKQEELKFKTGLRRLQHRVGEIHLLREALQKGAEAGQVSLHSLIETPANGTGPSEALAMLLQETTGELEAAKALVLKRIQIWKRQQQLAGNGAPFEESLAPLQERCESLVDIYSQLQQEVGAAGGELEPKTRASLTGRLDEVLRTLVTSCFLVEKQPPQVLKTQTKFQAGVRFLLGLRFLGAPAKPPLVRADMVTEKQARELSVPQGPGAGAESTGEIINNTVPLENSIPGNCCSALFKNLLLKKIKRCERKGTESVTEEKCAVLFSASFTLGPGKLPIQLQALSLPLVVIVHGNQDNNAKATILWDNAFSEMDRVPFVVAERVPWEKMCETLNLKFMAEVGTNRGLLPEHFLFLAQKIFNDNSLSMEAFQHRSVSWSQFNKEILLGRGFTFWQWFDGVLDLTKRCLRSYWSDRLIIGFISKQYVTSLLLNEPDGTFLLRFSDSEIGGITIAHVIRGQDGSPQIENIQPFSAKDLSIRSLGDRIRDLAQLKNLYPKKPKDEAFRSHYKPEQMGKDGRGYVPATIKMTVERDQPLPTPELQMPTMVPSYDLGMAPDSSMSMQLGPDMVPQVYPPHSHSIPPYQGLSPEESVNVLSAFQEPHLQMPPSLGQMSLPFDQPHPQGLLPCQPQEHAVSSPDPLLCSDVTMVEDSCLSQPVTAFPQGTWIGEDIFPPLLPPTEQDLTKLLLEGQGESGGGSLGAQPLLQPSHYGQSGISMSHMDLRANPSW
The experiment in a line: STAT6 Reporter Luciferase Assay (IL-13 stimulated HaCaT keratinocyte NanoLuc reporter cells). In kind it is cell-based. To be noted: IL-13 stimulated HaCaT STAT6 NanoLuc reporter cells; read-out: Reporter EC50. Summed up:
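Stably transfected HaCaT cells carrying NanoLuc under the STAT6-responsive IL-13Ra2 promoter were pre-treated with compound (11-point, 4-fold series, duplicate) for 2 h at 37 °C, then stimulated with 0.12 nM IL-13 for 4 h. Nano-Glo luminescence was read after 15 min.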
As for `CC(C)n1nc(C(=O)NCc2ccc(NC(=O)N3CCC4(CC3)CN(C)CCO4)cc2)c2c1[C@@H](C)CN(c1ccc(C(=O)N(C)C)cc1)C2` [Example 738, (S)-N-(4-((5-(4-(dimethylcarbamoyl)phenyl)-1-isopropyl-7-methyl-4,5,6,7-tetrahydro-1H-pyrazolo[4,3-c]pyridine-3-carboxamido)methyl)phenyl)-4-methyl-1-oxa-4,9-diazaspiro[5.5]undecane-9-carboxamide], the EC50 is 0.001 µM. The figure for `CC(C)n1nc(C(=O)NCc2ccc(NC(=O)N(C)C)cc2)c2c1CCN(c1ccc(C(=O)N3CCc4cnn(C)c4C3)cn1)C2` [Example 371, N-(4-(3,3-dimethylureido)benzyl)-1-isopropyl-5-(5-(1-methyl-4,5,6,7-tetrahydro-1H-pyrazolo[3,4-c]pyridine-6-carbonyl)pyridin-2-yl)-4,5,6,7-tetrahydro-1H-pyrazolo[4,3-c]pyridine-3-carboxamide] is 0.05 µM; for `CC(C)n1nc(C(=O)NCc2ccc(NC(=O)N3CCN(C)CC3)cc2)c2c1[C@@H](C)CN(c1ccc3c(c1)CCCN(C)C3=O)C2` [Example 651, (S)-1-isopropyl-7-methyl-5-(2-methyl-1-oxo-2,3,4,5-tetrahydro-1H-benzo[c]azepin-7-yl)-N-(4-(4-methylpiperazine-1-carboxamido)benzyl)-4,5,6,7-tetrahydro-1H-pyrazolo[4,3-c]pyridine-3-carboxamide] it is 0.001 µM; for `COCC1CCN(C(=O)c2ccc(N3CCc4c(c(C(=O)NCc5ccc(NC(=O)N(C)C)cc5)nn4C(C)C)C3)nc2)C1` (racemic) [Example 194, rac-(R)-N-(4-(3,3-dimethylureido)benzyl)-1-isopropyl-5-(5-(3-(methoxymethyl)pyrrolidine-1-carbonyl)pyridin-2-yl)-4,5,6,7-tetrahydro-1H-pyrazolo[4,3-c]pyridine-3-carboxamide] it is 0.401 µM. As for `CC(C)n1nc(C(=O)NCc2ccc(NC(=O)N(C)C)cc2)c2c1CCN(c1ccc(C(=O)N3C[C@@H]4OC(=O)N[C@@H]4C3)cn1)C2` (racemic) [Example 290, rac-N-(4-(3,3-dimethylureido)benzyl)-1-isopropyl-5-(5-((3aR,6aS)-2-oxohexahydro-2H-pyrrolo[3,4-d]oxazole-5-carbonyl)pyridin-2-yl)-4,5,6,7-tetrahydro-1H-pyrazolo[4,3-c]pyridine-3-carboxamide], the EC50 stood at 1.41 µM.

With `CC(C)n1nc(C(=O)NCc2ccc(NC(=O)N(C)C)cc2)c2c1CCN(c1ccc(C(=O)N3CCc4ncn(C)c4C3)cn1)C2` [Example 405, N-(4-(3,3-dimethylureido)benzyl)-1-isopropyl-5-(5-(3-methyl-4,5,6,7-tetrahydro-3H-imidazo[4,5-c]pyridine-5-carbonyl)pyridin-2-yl)-4,5,6,7-tetrahydro-1H-pyrazolo[4,3-c]pyridine-3-carboxamide], the EC50 was found to be 0.159 µM. In the case of `CC(C)n1nc(C(=O)NCc2ccc(NC(=O)N(C)C)cc2)c2c1CCN(c1ccc(C(=O)N3CCC(C)(O)C3)cn1)C2` (racemic) [Example 219, rac-(R)-N-(4-(3,3-dimethylureido)benzyl)-5-(5-(3-hydroxy-3-methylpyrrolidine-1-carbonyl)pyridin-2-yl)-1-isopropyl-4,5,6,7-tetrahydro-1H-pyrazolo[4,3-c]pyridine-3-carboxamide], the EC50 was 1.31 µM.

In the case of `CC(C)n1nc(C(=O)NCc2ccc(NC(=O)N(C)C)cc2)c2c1CCN(c1ccc(C(=O)N3CC[C@H](C#N)C3)cn1)C2` [Example 291, (S)-5-(5-(3-cyanopyrrolidine-1-carbonyl)pyridin-2-yl)-N-(4-(3,3-dimethylureido)benzyl)-1-isopropyl-4,5,6,7-tetrahydro-1H-pyrazolo[4,3-c]pyridine-3-carboxamide], the EC50 turned out to be 0.793 µM. As for `CC(C)n1nc(C(=O)NCc2ccc(NC(=O)NC3(C)CNC3)cc2)c2c1[C@@H](C)CN(c1ccc(C(=O)N(C)C)cc1)C2` [Example 739, (S)-5-(4-(dimethylcarbamoyl)phenyl)-1-isopropyl-7-methyl-N-(4-(3-(3-methylazetidin-3-yl)ureido)benzyl)-4,5,6,7-tetrahydro-1H-pyrazolo[4,3-c]pyridine-3-carboxamide], the EC50 stood at 0.002 µM. In the case of `CC(C)n1nc(C(=O)NCc2ccc(NC(=O)N3CCC4(CC3)CCN4C)c(F)c2)c2c1[C@@H](C)CN(c1ccc(C(=O)N(C)C)cc1)C2` [Example 645, (S)-5-(4-(dimethylcarbamoyl)phenyl)-N-(3-fluoro-4-(1-methyl-1,7-diazaspiro[3.5]nonane-7-carboxamido)benzyl)-1-isopropyl-7-methyl-4,5,6,7-tetrahydro-1H-pyrazolo[4,3-c]pyridine-3-carboxamide], the EC50 came out at 0.001 µM. As for `CC(C)n1nc(C(=O)NCc2ccc(NC(=O)N(C)C)cc2)c2c1CCN(c1ccc(C(=O)N3CCC[C@@H]3C(N)=O)cn1)C2` [Example 218, (R)-5-(5-(2-carbamoylpyrrolidine-1-carbonyl)pyridin-2-yl)-N-(4-(3,3-dimethylureido)benzyl)-1-isopropyl-4,5,6,7-tetrahydro-1H-pyrazolo[4,3-c]pyridine-3-carboxamide], the EC50 was 2.38 µM. In the case of `CCNC(=O)CN(C)C(=O)c1ccc(N2CCc3c(c(C(=O)NCc4ccc(NC(=O)N(C)C)cc4)nn3C(C)C)C2)nc1` [Example 229, N-(4-(3,3-dimethylureido)benzyl)-5-(5-((2-(ethylamino)-2-oxoethyl)(methyl)carbamoyl)pyridin-2-yl)-1-isopropyl-4,5,6,7-tetrahydro-1H-pyrazolo[4,3-c]pyridine-3-carboxamide], the EC50 came out at 0.592 µM. Take `CC(C)n1nc(C(=O)NCc2ccc(NC(=O)N3CCN(C)[C@H](C)C3)cc2)c2c1[C@@H](C)CN(c1ccc(C(=O)N(C)C)cc1)C2` [Example 743, (S)-5-(4-(dimethylcarbamoyl)phenyl)-N-(4-((R)-3,4-dimethylpiperazine-1-carboxamido)benzyl)-1-isopropyl-7-methyl-4,5,6,7-tetrahydro-1H-pyrazolo[4,3-c]pyridine-3-carboxamide]: the half-maximal effective concentration (EC50) turned out to be 0.001 µM. For `Cc1nn(C)c2c1CCN(C(=O)c1ccc(N3CCc4c(c(C(=O)NCc5ccc(NC(=O)N(C)C)cc5)nn4C(C)C)C3)nc1)C2` [Example 418, 5-(5-(1,3-dimethyl-4,5,6,7-tetrahydro-1H-pyrazolo[3,4-c]pyridine-6-carbonyl)pyridin-2-yl)-N-(4-(3,3-dimethylureido)benzyl)-1-isopropyl-4,5,6,7-tetrahydro-1H-pyrazolo[4,3-c]pyridine-3-carboxamide], the EC50 is 0.061 µM. The figure for `CC(C)n1nc(C(=O)NCc2ccc(NC(=O)N3CCNCC3)cc2)c2c1C(C(F)(F)F)CN(c1ccc(C(=O)N(C)C)cc1)C2` (racemic) [Example 704, rac-(R)-5-(4-(dimethylcarbamoyl)phenyl)-1-isopropyl-N-(4-(piperazine-1-carboxamido)benzyl)-7-(trifluoromethyl)-4,5,6,7-tetrahydro-1H-pyrazolo[4,3-c]pyridine-3-carboxamide] is 0.001 µM; for `CC(C)n1nc(C(=O)NCc2ccc(NC(=O)N(C)C)cc2)c2c1CCN(c1ccc(C(=O)N3C[C@@H]4C[C@H]3C(=O)N4)cn1)C2` [Example 227, N-(4-(3,3-dimethylureido)benzyl)-1-isopropyl-5-(5-((1S,4S)-6-oxo-2,5-diazabicyclo[2.2.1]heptane-2-carbonyl)pyridin-2-yl)-4,5,6,7-tetrahydro-1H-pyrazolo[4,3-c]pyridine-3-carboxamide] it is more than 6.12 µM; for `CC(C)n1nc(C(=O)NCc2ccc(NC(=O)N(C)C)cc2)c2c1[C@@H](C)CN(c1ccc(C(=O)N3Cc4cccnc4C3)cc1)C2` [Example 676, (S)-5-(4-(6,7-dihydro-5H-pyrrolo[3,4-b]pyridine-6-carbonyl)phenyl)-N-(4-(3,3-dimethylureido)benzyl)-1-isopropyl-7-methyl-4,5,6,7-tetrahydro-1H-pyrazolo[4,3-c]pyridine-3-carboxamide] it is 0.0003 µM. Take `CC(C)n1nc(C(=O)NCc2ccc(NC(=O)N(C)C)cc2)c2c1CCN(c1ccc(C(=O)N3Cc4cnn(C)c4C3)cn1)C2` [Example 363, N-(4-(3,3-dimethylureido)benzyl)-1-isopropyl-5-(5-(1-methyl-1,4,5,6-tetrahydropyrrolo[3,4-c]pyrazole-5-carbonyl)pyridin-2-yl)-4,5,6,7-tetrahydro-1H-pyrazolo[4,3-c]pyridine-3-carboxamide]: the concentration giving a half-maximal response (EC50) was found to be 0.007 µM.

The values above are taken from patent US20250320213A1, “Nitrogen-Containing Heterocyclic Compounds” (Pfizer Inc., priority 2024, published 2025).
